Reference: US20080312160A1, “METHOD OF TREATING ENTERITIS, […], AND DIARRHEA FROM C. DIFFICILE WITH AN A2A ADENOSINE RECEPTOR AGONIST” (priority 2007, published 2008)

Legend:
[1] = test system: C. difficile toxin A-induced inflammation and secretion in rabbit ileal loops; type: in vivo, New Zealand white rabbits; conditions: ATL 313 100 nM with alanyl-glutamine 25 mM; 5 hours
Description: Materials and Methods: New Zealand white rabbits weighing about 2 kg are fasted overnight. Under anesthesia with ketamine (60-80 mg/kg) and xylazine (5-10 mg/kg) administered intramuscularly, a midline abdominal incision is performed to expose the small bowel. After the ileum is flushed, four-cm loops are ligated using double ties with a 1 cm interval between loops. Each of the control loops is injected intraluminally with 1 mL solution of PBS with either C. difficile toxin A (toxin A) (Techlab, Blacksburg, Va.) at 10 μg/mL. Loops from another set of rabbits are treated with the adenosine A2A agonists, JMR 193 (ATL 193) (10 nM, 100 nM, or 1 uM doses) or ATL 146e ([…], 100 nM, 1 uM doses) immediately before the enterotoxin is administered. In addition a rabbit is treated with A2A agonist, ATL 313 (100 nM), alone and another rabbit treated with ATL 313 with alanyl-glutamine (25 mM). After 5 hours of incubation, the ligated small intestinal loops are removed. The length of each ligated ileal segment is measured and intraluminal fluid was quantified. Volume to length ratio, V/L (mL/cm), per loop is calculated. Samples of intestinal stained with hematoxylin-eosin and graded from 0 (none) to 4 (worst) based on the degree of mucosal disruption, increase in cellularity and intensity of vascular congestion.

[2] = test system: Clostridium difficile toxin A-induced ADA activity; test: ADA activity in ileal tissue and ileal secretion; type: in vivo, mice; conditions: ATL 313 in TxA-challenged animals
Description: (§1) Mice were fasted overnight, but allowed access to water, and then anesthetized with ketamine and xylazine (60 and 5 mg/Kg intramuscularly, respectively). Through a midline laparotomy, one 4-cm ileal loop was ligated and injected with either 0.1 ml of PBS pH 7.4 (control) or buffer containing TxA (1-10 μg). The abdomen was closed, and the animals were allowed to regain consciousness. Three hours after administration of TxA, mice were sacrificed and the intestinal loops were removed. The loop length, weight, and fluid volume were recorded. A portion of the loop was frozen at −70° C. for measurement of myeloperoxidase (MPO) and ADA activities and TNF-α concentration. […]
The ADA assay is based on the measurement of ammonia produced during the deamination of adenosine by the method of Giusti (1974. Adenosine deaminase, p. 1092-1099. In H. U. Bergmeyer (Ed.), Methods of Enzymatic Analysis, vol. 2. Academic Press Inc., New York), with slight modifications. […] Following the addition of 600 μl of sodium hypochloride (11 mM) in 125 mM NaOH all tubes were again incubated at 37° C. for 30 min and read at 628 nm. The enzyme activity in the tissue and in the ileum contents was expressed as μmols of ammonium formed/mg of protein/hour and as μmols of ammonium formed/hour, respectively.

[3] = test system: Clostridium difficile toxin A (TxA)-induced cell death; test: Cell death in intestinal sections (TUNEL method); type: in vivo, mice; conditions: ATL 313 + TxA
Description: as §1, with “concentration. The remaining tissue was fixed in 10% formalin and embedded in paraffin, and sections were stained with hematoxylin and eosin for histological grading of ileal inflammation. Some mice were injected with ATL 313 ([…] final concentration) immediately followed by PBS or TxA (5 μg); another group was injected with ZM241385 (5 nM), the selective A2A AR antagonist, immediately followed by PBS or ATL 313 (5 nM)+TxA (5 μg) in the ileal loop. In another experiment, TxA (5 μg) was injected into the ileal loop, the abdomen was closed, and, 30 min later, the abdomen was reopened and ATL 313 (5 nM) administered.” for “concentration.”

[4] = test system: murine ileal loops injected with Clostridium difficile toxin A (TxA); test: TxA-induced enteritis in ligated murine ileal loops: loop weight and secretion volume; type: in vivo, mice
Description: For this study, 174 male Swiss mice, 25-30 g body weight, from the animal colony of the Federal University of Ceara were used. The animals received water and food ad libitum.
(§2) Mice were fasted overnight, but allowed access to water, and then anesthetized with ketamine and xylazine (60 and 5 mg/Kg intramuscularly, respectively). Through a midline laparotomy, one 4-cm ileal loop was ligated and injected with either 0.1 ml of PBS pH 7.4 (control) or buffer containing TxA (1-10 μg). The abdomen was closed, and the animals were allowed to regain consciousness. Three hours after administration of TxA, mice were sacrificed and the intestinal loops were removed. The loop length, weight, and fluid volume were recorded. A portion of the loop was frozen at −70° C. for measurement of myeloperoxidase (MPO) and ADA activities and TNF-α concentration. The remaining tissue was fixed in 10% formalin and embedded in paraffin, and sections were stained with hematoxylin and eosin for histological grading of ileal inflammation. Some mice were injected with ATL 313 ([…] final concentration) immediately followed by PBS or TxA (5 μg); another group was injected with ZM241385 (5 nM), the selective A2A AR antagonist, immediately followed by PBS or ATL 313 (5 nM)+TxA (5 μg) in the ileal loop. In another experiment, TxA (5 μg) was injected into the ileal loop, the abdomen was closed, and, 30 min later, the abdomen was reopened and ATL 313 (5 nM) administered.

[5] = test system: Clostridium difficile toxin A-induced MPO activity; test: MPO assay in ileal tissue (neutrophil accumulation); type: in vivo, mice
Description: as §2, with “In another experiment, TxA (5 μg) was injected into the ileal loop, the abdomen was closed, and, 30 min later, the abdomen was reopened and ATL 313 (5 nM) administered.” left out
The extent of neutrophil accumulation in ileal tissue was estimated by measuring MPO activity assay. […] MPO activity in the resuspended pellet was assayed by measuring the change in absorbance at 450 nm using o-dianisidine dihydrochloride and 1% hydrogen peroxide. […]

[6] = test system: Clostridium difficile toxin A (TxA)-induced histological alterations; test: Histological grading of ileal inflammation, murine ileal loops; type: in vivo, mice; conditions: for median injury score: median(range)
Description: as §2
The severity of inflammation was scored in coded slides by a pathologist on a scale of 1 (mild) to 3 (severe) for epithelial damage, edema, and neutrophil infiltration.

[7] = test system: Clostridium difficile toxin A-induced TNF-α production; test: Quantification of TNF-α by ELISA in ileal tissue; type: in vivo, mice; conditions: ATL 313 + TxA vs TxA only
Description: as §2, with “In another experiment, TxA (5 μg) was injected into the ileal loop, the abdomen was closed, and, 30 min later, the abdomen was reopened and ATL 313 (5 nM) administered.” left out
Ileal tissue was harvested from animals in order to measure TNF-α concentration by enzyme-linked immunosorbent assay (ELISA). The results are expressed as pg/mL of TNF-α.

[8] = ATL 313 5 nM alone, absence of TxA
[9] = ATL 313 5 nM in loop immediately followed by TxA 5 μg, 3 h, vs TxA alone

SMILES: COC(=O)N1CCC(CC#Cc2nc(N)c3ncn(C4OC(C(=O)NC5CC5)C(O)C4O)c3n2)CC1 (stereo not shown) [ATL 313, 4-{3-[6-Amino-9-(5-cyclopropylcarbamoyl-3,4-dihydroxy-tetrahydro-furan-2-yl)-9H-purin-2-yl]-prop-2-ynyl}-piperidine-1-carboxylic acid methyl ester]
- toxin A-induced inflammation [1]: improved inflammation
- toxin A-induced secretion (volume to length ratio) [1]: dramatically improved secretion
- ADA activity in ileal secretion [2]: significantly reduced (P<0.05)
- ADA activity in ileal tissue [2]: significantly reduced (P<0.05)
- mucosal cell death [3]: reduced number for cell death similar to the level of PBS control
- secretion volume/ileal loop length ratio [4, 8]: did not alter
- weight/ileal loop length ratio [4, 8]: did not alter
- weight/ileal loop length ratio ([4]; ATL 313 5 nM given 30 min after TxA 5 μg): 28.3 ± 1.4 mg/cm
- secretion volume/ileal loop length ratio [4, 9]: significantly (P<0.05) reduced
- weight/ileal loop length ratio [4, 9]: significantly (P<0.05) reduced
- MPO activity in ileal tissue ([5]; ATL 313 5 nM alone, PBS=1.6±0.6): 2.1±0.2 U/mg
- MPO activity in ileal tissue ([5]; ATL 313 5 nM then TxA 5 μg): 1.0±0.6 U/mg
- histological injury score ([6]; ATL 313 30 min after injection of TxA 5 μg): 1(0-2)
- median injury score ([6]; ATL 313 + TxA 5 μg/loop): 1(0-2)
- median injury score ([6]; compound alone, no TxA): 0(0-0)
- TNF-α production in ileal tissue [7]: significantly reduced (P<0.05)
